Columns and labels:
human recombinant AChE = molecular target: T1, human recombinant AChE (Homo sapiens, UniProt P22303); experiment: Inhibition of human AChE (Ellman's assay); type: biochemical; settings: 20 min preincubation at 37 °C, pH 8.0, read-out: IC50 (hAChE)
T1 construct: purchased Sigma-Aldrich, Milan, Italy
Protocol: (§1) Next, the in vitro inhibition of human acetylcholinesterase (hAChE) and human butyrylcholinesterase (hBuChE) was assessed according to the method of Ellman
(§2) The ability of QT78 to inhibit human ChE activity was assessed using Ellman’s assay. A Jasco V-530 double beam spectrophotometer connected to a HAAKE DC30 thermostating system (Thermo Haake, Vreden, Germany) was used. […] Either 50 µL of a solution of the tested compound at increasing concentrations or 50 µL of solvent (methanol or water) were added to the assay solution and preincubated at 37 °C with the enzyme for 20 min before the addition of substrate. […] In parallel, blanks containing all components except the enzyme were prepared to account for the non-enzymatic hydrolysis of the substrate. The reaction rates were compared and the percentage of inhibition due to the presence of test compound was calculated. Each concentration was analyzed in duplicate/triplicate. The percentage of inhibition of the enzyme activity due to the presence of inhibitor was calculated. Inhibition plots were obtained for each compound by plotting the percentage of inhibition versus the logarithm of inhibitor concentration in the assay solution. The linear regression parameters were determined for each curve and the IC50 extrapolated.

SH-SY5Y cells [1] = experiment: Neuroprotection in SH-SY5Y cells against okadaic acid (OA) toxicity (MTT); type: cell-based, human; settings: 1 μM compound, compared with lower concentrations
Protocol: (§3) Finally, following the protocols described in the Supporting Information, we evaluated the neuroprotective profile of QT78 against two toxic insults related to neurodegeneration, using melatonin (10 nM) as a reference compound: (a) a model of reactive oxygen species (ROS) generation, based on the cocktail of the mitochondrial respiratory chain blockers rotenone and oligomycin A (R/O), and (b) hyperphosphorylation of tau protein using okadaic acid (OA), a well-known protein phosphatase inhibitor.
(§4) Human SH-SY5Y cells were maintained in a 1:1 mixture of Nutrient Mixture F-12 and Eagle´s minimum essential medium (EMEM) supplemented with 15 nonessential amino acids, 1 mM sodium pyruvate, 10% heat-inactivated FBS, 100 units/mL penicillin, and 100 μg/mL streptomycin. Cultures were seeded into flasks containing supplemented medium and maintained at 37 °C in a humidified atmosphere of 5% CO2 and 95% air. For assays, SH-SY5Y cells were sub-cultured in 96-well plates at a seeding density of 5 × 10^4 cells per well for 2 days. […]
(§5) MTT reduction was performed as described for both HepG2 and SH-SY5Y human cell lines. […] Colorimetric determination of MTT reduction was measured in an ELISA microplate reader at 540 nm. […]

SH-SY5Y cells [2] = experiment: Neuroprotection in SH-SY5Y cells against rotenone/oligomycin A (R/O) toxicity (MTT); type: cell-based, human; settings: 1 μM compound, compared with lower concentrations
Protocol: as §3, §4, §5

BuChE from human serum = molecular target: T2, BuChE from human serum (Homo sapiens, UniProt P06276); experiment: Inhibition of human BuChE (Ellman's assay); type: biochemical; settings: 20 min preincubation at 37 °C, pH 8.0, read-out: IC50 (hBuChE)
T2 construct: BuChE from human serum (Sigma-Aldrich, Milan, Italy); purchased Sigma-Aldrich, Milan, Italy; host or cells: human serum
T2 sequence (P06276 29-602): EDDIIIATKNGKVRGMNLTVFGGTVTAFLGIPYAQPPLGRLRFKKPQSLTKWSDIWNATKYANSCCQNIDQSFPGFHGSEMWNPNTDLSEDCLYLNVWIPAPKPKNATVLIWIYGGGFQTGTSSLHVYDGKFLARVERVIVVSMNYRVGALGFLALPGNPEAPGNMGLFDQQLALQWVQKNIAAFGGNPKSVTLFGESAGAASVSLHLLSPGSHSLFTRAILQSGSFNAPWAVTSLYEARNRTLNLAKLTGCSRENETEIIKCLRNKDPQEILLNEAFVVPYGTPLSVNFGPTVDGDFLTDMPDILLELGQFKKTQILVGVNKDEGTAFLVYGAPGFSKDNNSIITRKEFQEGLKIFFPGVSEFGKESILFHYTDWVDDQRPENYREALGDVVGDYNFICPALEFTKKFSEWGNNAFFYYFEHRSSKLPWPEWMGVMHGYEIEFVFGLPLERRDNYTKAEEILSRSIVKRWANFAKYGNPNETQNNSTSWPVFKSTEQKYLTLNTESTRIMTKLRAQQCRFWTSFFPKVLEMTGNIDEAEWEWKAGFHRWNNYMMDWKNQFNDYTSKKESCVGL
Protocol: as §1, §2

in vitro = type: cell-based; settings: human
Protocol: The human hepatoma HepG2 cell line was kindly provided by the IdiPAZ Institute for Health Research (Madrid, Spain). They were cultured in Eagle´s minimum essential medium (EMEM) supplemented with 15 nonessential amino acids, 1 mM sodium pyruvate, 10 % heat-inactivated FBS, 100 units/mL penicillin, and 100 µg/mL streptomycin (reagents from Invitrogen, Madrid, Spain). […] Culture media were changed every 2 days. […] For assays, cells were subcultured in 96-well plates at a seeding density of 1 × 10^5 cells per well.
MTT reduction was performed as described for both HepG2 and SH-SY5Y human cell lines. Briefly, 50 µL of the MTT labeling reagent, at a final concentration of 0.5 mg/mL, was added. […] Colorimetric determination of MTT reduction was measured in an ELISA microplate reader at 540 nm. Non-treated cells were considered controls and were taken as 100% viability.

T1 sequence (P22303 32-614): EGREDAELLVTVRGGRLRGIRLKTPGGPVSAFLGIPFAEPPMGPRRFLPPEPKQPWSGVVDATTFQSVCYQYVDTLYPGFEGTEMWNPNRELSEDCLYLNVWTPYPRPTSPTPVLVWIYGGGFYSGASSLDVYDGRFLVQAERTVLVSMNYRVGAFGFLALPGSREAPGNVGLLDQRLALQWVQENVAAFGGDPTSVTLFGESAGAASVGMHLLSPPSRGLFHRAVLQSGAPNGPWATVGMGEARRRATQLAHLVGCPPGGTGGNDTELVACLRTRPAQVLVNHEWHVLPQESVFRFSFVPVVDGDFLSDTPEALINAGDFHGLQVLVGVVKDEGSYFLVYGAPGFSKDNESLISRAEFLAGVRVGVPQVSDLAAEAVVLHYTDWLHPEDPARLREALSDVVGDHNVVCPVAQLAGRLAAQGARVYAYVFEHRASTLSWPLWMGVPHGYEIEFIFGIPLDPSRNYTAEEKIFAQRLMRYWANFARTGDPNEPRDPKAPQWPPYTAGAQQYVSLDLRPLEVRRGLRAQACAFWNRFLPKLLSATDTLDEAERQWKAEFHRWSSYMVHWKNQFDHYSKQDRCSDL

Which results are given for `Nc1c2c(nc3nc4ccccc4nc13)CCCC2` [QT78, 1,2,3,4-tetrahydroquinolino[2,3-b]quinoxalin-12-amine]?
IC50 (human recombinant AChE): 22 ± 1.3 µM; protective capacity against OA (SH-SY5Y cells [1]): the protective capacity decreased; protective capacity against R/O (SH-SY5Y cells [2]): the protective capacity decreased; IC50 (BuChE from human serum): 6.79 ± 0.33 µM; viability at 24 h, 1 µM (in vitro): 96.7 ± 2.14%; viability at 24 h, 3 µM (in vitro): 97.6 ± 2.2%; viability at 24 h, 10 µM (in vitro): 97.1 ± 1.64%; viability at 24 h, 30 µM (in vitro): 95.1 ± 1.5%; viability at 24 h, 100 µM (in vitro): 90.5 ± 1.86%; viability at 24 h, 300 µM (in vitro): 78.1 ± 0.94%; viability at 24 h, 1000 µM (in vitro): 68.3 ± 2.92%

— paper PMC6514705, “QuinoxalineTacrine QT78, a Cholinesterase Inhibitor as a Potential Ligand for Alzheimer’s Disease Therapy” (Molecules, 2019)
